In publication PMC10599993, “The PTPN2/PTPN1 inhibitor ABBV-CLS-484 unleashes potent anti-tumour immunity” (Nature, 2023):

Columns and labels:
Assay in all cases: biochemical
Design in all cases: Kinase selectivity panel, IC50 of AC484 (Supplementary Table 1)
[1] = molecular target: SGK1 (Homo sapiens, UniProt O00141)
[2] = molecular target: T1, PKG1A (Homo sapiens, UniProt Q13976)
T1 construct: gene PRKG1; isoform 1 alpha

[3] = molecular target: BMX (Homo sapiens, UniProt P51813)
[4] = molecular target: Pim1 (Homo sapiens, UniProt P11309)
[5] = molecular target: Rock1 (Homo sapiens, UniProt Q13464)
[6] = molecular target: TBK1 (Homo sapiens, UniProt Q9UHD2)
Sequence of TBK1 (Q9UHD2 whole entry): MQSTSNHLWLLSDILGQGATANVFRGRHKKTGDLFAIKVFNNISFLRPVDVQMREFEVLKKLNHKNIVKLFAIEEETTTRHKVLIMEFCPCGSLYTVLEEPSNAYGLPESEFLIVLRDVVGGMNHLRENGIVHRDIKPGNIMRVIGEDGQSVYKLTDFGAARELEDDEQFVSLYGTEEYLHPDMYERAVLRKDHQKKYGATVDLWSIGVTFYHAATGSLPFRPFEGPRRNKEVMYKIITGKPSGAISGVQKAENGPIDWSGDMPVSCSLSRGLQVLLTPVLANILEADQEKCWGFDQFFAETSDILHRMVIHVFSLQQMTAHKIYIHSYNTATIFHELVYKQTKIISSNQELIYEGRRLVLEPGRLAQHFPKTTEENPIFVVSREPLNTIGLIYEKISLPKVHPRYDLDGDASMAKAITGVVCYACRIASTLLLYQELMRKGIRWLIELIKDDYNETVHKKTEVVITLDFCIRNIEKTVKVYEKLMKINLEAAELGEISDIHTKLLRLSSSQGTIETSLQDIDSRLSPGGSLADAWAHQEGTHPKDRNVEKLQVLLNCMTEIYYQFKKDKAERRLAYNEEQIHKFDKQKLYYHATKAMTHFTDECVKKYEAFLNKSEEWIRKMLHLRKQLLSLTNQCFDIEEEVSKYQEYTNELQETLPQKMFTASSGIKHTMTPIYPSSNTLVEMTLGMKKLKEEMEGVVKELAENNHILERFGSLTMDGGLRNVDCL

[7] = molecular target: Lck (Homo sapiens, UniProt P06239)
[8] = molecular target: PDGFRB (Homo sapiens, UniProt P09619)
[9] = molecular target: ErbB4 (Homo sapiens, UniProt Q15303)
[10] = molecular target: Zap70 (Homo sapiens, UniProt P43403)
Sequence of Zap70 (P43403 whole entry): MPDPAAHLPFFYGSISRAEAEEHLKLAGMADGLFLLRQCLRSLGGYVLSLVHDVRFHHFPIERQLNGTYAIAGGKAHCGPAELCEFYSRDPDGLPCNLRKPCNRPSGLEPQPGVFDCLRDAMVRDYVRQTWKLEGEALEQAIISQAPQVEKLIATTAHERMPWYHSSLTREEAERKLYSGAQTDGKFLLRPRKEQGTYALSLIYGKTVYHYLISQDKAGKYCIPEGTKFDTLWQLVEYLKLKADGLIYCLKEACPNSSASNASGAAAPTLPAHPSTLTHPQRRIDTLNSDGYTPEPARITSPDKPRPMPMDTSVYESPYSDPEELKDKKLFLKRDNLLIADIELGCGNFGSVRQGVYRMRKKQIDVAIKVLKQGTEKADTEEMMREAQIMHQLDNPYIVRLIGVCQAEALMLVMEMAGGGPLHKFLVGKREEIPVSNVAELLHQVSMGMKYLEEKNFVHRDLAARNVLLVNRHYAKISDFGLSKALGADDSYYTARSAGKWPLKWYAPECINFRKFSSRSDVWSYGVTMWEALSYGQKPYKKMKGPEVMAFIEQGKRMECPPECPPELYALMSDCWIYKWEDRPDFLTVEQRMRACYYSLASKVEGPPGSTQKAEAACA

[11] = molecular target: T2, TrkC (Homo sapiens, UniProt Q16288)
T2 construct: gene NTRK3

[12] = molecular target: Blk (Homo sapiens, UniProt P51451)
[13] = molecular target: BRAF (Homo sapiens, UniProt P15056)
[14] = molecular target: CSF1R (Homo sapiens, UniProt P07333)
[15] = molecular target: T3, PKCzeta (Homo sapiens, UniProt Q05513)
T3 construct: gene PRKCZ
T3 sequence (Q05513 whole entry): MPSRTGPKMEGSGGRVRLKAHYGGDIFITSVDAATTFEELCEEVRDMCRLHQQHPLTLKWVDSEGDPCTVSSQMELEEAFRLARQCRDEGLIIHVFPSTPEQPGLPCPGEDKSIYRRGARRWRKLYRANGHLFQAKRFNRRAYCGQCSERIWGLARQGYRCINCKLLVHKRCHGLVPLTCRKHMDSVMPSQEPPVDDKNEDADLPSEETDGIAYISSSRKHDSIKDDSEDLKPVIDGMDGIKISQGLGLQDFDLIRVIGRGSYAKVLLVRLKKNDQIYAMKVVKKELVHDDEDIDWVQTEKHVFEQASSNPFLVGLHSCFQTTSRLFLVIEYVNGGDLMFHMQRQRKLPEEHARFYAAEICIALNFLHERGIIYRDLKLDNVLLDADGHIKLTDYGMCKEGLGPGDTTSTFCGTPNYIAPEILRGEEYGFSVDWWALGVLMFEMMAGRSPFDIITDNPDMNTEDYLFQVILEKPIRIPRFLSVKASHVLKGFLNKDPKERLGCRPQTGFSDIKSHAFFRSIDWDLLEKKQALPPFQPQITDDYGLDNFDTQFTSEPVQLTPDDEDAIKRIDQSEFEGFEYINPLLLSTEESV

[16] = molecular target: ITK (Homo sapiens, UniProt Q08881)
[17] = molecular target: T4, PKCepsilon (Homo sapiens, UniProt Q02156)
T4 construct: gene PRKCE

[18] = molecular target: CDK9/Cyclin K (Homo sapiens, UniProt P50750)
Sequence of CDK9/Cyclin K (P50750 whole entry): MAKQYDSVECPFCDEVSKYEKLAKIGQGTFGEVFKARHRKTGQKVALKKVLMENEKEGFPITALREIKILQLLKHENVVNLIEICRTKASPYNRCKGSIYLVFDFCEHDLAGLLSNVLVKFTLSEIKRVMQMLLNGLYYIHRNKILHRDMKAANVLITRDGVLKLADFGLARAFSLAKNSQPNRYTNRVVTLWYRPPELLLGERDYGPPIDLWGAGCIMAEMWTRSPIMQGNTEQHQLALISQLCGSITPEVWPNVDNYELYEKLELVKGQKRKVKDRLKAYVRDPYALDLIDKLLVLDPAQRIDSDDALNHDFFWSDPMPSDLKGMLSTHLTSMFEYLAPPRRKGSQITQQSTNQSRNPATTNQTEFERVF
Sequence of CDK9/Cyclin K (O75909 whole entry partner): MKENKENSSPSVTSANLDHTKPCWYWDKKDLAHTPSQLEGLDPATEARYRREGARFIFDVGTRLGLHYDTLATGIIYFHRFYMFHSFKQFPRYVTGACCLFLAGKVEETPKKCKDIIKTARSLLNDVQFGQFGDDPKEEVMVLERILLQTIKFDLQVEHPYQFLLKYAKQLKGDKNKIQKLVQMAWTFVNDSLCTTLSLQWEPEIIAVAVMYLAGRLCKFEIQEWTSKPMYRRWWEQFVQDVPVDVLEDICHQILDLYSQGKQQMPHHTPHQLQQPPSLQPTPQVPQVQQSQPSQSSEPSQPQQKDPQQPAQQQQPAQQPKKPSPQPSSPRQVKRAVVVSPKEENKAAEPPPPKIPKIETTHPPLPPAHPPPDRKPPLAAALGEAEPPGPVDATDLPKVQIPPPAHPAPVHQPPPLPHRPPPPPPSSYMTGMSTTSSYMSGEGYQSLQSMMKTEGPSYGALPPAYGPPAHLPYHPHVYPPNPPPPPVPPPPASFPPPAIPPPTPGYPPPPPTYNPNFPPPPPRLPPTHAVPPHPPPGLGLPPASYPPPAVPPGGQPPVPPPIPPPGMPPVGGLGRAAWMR

[19] = molecular target: Syk (Homo sapiens, UniProt P43405)
[20] = molecular target: MINK1 (Homo sapiens, UniProt Q8N4C8)
[21] = molecular target: T5, Erk2 (Homo sapiens, UniProt P28482)
T5 construct: gene MAPK1
T5 sequence (P28482 whole entry): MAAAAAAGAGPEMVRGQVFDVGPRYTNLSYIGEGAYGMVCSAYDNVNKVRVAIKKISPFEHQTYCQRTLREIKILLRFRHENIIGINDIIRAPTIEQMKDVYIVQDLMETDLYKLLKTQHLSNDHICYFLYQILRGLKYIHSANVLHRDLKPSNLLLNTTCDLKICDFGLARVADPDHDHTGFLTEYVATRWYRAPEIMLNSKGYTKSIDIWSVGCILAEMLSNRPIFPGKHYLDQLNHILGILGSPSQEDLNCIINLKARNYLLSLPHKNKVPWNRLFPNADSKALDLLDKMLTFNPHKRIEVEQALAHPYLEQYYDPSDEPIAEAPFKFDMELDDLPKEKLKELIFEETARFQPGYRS

[22] = molecular target: CAMK2A (Homo sapiens, UniProt Q9UQM7)
Sequence of CAMK2A (Q9UQM7 whole entry): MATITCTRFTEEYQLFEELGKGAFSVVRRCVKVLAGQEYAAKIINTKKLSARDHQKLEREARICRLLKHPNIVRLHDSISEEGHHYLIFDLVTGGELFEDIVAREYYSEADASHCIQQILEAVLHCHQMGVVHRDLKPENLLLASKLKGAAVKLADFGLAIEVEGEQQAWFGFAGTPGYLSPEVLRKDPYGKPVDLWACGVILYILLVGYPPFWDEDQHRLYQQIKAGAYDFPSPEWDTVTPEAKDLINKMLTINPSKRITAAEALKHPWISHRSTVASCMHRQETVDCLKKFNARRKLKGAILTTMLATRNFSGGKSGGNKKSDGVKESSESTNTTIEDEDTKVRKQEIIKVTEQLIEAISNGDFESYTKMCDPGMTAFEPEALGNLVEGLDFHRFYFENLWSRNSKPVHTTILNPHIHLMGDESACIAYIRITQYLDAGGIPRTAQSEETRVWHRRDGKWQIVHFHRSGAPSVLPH

[23] = molecular target: T6, IKKE (Homo sapiens, UniProt Q14164)
T6 construct: gene IKBKE

[24] = molecular target: T7, PKCbeta1 (Homo sapiens, UniProt P05771)
T7 construct: gene PRKCB; isoform beta1

[25] = molecular target: RET (Homo sapiens, UniProt P07949)
[26] = molecular target: Src (Homo sapiens, UniProt P12931)
Sequence of Src (P12931 whole entry): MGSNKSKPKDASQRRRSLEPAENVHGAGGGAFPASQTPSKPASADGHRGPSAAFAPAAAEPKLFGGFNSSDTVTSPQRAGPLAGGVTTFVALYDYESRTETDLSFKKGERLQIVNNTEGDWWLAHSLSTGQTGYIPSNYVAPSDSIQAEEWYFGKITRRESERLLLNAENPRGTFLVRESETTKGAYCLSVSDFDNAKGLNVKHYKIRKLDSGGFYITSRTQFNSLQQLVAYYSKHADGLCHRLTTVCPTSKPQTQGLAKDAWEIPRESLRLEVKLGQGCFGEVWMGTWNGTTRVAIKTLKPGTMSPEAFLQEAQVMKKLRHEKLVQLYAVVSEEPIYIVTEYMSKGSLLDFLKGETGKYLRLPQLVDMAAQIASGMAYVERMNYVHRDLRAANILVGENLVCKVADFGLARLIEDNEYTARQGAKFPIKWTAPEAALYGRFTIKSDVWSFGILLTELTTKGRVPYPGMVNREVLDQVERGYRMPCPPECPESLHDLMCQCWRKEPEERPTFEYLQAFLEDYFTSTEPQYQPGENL

[27] = molecular target: CLK2 (Homo sapiens, UniProt P49760)
[28] = molecular target: MERTK (Homo sapiens, UniProt Q12866)
[29] = molecular target: RIPK2 (Homo sapiens, UniProt O43353)
Sequence of RIPK2 (O43353 whole entry): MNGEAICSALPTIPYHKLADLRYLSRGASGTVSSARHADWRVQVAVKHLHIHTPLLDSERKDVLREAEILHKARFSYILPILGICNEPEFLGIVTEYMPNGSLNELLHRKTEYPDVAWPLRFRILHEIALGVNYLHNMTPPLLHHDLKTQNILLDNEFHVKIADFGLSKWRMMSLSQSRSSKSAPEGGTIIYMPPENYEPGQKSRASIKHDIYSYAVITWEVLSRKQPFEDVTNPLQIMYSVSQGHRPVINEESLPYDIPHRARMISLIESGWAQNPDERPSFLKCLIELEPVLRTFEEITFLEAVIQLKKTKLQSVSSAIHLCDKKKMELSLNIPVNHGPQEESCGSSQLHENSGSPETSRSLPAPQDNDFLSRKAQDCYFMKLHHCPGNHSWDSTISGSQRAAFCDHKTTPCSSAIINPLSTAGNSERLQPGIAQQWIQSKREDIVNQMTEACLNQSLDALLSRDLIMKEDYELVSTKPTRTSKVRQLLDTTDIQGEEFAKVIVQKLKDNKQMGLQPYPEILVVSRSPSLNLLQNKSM

Measured: IC50

CC(C)CCN[C@@H]1CCc2cc(O)c(N3CC(=O)NS3(=O)=O)c(F)c2C1 [AC484, ABBV-CLS-484]
> 10 µM: all assays above
